Assay results reported in article PMC7391777, “Inhibition of acetyl-CoA carboxylase by spirotetramat causes growth arrest and lipid depletion in nematodes” (Scientific Reports, 2020).

Target: T1, C. elegans ACC (POD-2) (Caenorhabditis elegans, UniProt H2L0M0)
T1 construct: native enzyme in total protein extract of C. elegans pellet, not purified
Assay: ACC activity in total protein extract, radiolabeled sodium bicarbonate
Format: biochemical
Settings: total protein extract of C. elegans

T1 sequence (H2L0M0 1-2165): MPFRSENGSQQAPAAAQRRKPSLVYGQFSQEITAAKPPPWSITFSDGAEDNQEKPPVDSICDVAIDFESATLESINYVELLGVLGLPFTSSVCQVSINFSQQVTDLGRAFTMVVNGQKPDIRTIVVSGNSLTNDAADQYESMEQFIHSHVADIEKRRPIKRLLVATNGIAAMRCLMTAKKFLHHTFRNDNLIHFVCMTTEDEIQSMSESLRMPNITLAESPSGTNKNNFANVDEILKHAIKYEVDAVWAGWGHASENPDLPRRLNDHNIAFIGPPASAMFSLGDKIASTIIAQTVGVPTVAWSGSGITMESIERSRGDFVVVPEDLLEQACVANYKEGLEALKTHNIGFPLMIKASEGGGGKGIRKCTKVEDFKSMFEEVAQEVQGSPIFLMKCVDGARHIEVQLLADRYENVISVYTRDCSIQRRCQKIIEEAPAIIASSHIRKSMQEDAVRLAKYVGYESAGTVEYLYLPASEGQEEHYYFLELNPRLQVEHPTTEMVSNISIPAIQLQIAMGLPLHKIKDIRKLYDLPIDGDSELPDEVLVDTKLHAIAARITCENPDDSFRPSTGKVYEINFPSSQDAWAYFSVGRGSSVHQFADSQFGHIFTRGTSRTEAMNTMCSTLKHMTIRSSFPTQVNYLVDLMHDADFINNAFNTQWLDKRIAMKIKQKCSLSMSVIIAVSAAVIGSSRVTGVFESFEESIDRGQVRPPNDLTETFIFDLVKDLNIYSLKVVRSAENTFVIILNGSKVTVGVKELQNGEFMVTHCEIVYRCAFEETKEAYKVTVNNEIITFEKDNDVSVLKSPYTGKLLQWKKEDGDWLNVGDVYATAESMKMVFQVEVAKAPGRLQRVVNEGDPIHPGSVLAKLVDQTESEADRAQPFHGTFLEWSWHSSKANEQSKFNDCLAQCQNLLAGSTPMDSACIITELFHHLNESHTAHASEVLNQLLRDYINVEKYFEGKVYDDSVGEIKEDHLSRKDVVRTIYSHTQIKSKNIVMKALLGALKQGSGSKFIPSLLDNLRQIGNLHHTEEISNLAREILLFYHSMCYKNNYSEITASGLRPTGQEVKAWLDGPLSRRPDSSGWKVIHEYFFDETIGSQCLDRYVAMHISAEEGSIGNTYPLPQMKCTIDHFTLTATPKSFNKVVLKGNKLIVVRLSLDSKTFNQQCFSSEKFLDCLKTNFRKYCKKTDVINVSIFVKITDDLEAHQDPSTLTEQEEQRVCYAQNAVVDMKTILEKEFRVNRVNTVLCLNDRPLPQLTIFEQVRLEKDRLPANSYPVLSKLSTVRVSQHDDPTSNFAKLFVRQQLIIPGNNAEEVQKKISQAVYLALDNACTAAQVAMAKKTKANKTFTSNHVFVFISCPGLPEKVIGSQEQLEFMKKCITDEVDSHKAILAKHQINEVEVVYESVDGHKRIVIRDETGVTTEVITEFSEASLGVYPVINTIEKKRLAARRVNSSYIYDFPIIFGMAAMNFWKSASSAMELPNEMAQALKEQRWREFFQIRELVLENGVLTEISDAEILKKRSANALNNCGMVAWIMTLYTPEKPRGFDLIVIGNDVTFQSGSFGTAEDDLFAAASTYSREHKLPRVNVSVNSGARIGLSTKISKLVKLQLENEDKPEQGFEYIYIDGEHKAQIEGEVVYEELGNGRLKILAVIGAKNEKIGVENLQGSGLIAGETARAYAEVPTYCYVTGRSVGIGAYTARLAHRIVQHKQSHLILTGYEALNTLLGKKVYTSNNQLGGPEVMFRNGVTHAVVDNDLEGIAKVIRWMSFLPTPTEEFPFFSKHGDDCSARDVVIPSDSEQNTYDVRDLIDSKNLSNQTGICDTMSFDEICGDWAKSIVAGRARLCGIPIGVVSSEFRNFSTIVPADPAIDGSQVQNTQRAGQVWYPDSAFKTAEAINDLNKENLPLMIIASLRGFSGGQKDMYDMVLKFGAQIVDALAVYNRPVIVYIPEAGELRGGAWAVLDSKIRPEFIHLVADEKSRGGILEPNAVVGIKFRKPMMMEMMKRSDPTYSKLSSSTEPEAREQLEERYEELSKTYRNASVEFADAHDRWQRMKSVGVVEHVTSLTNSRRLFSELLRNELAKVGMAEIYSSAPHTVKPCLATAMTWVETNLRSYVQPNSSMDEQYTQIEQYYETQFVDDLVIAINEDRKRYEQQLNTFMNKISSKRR

Compound `COC1CCC2(CC1)NC(=O)C(c1cc(C)ccc1C)=C2O` (stereo not shown) [SPT-enol] has an IC50 of 50 µM.
